In PMC12604490, “Dual immunomodulatory and antileishmanial potential of TLR7/8 agonists against Leishmania donovani” (Infection and Immunity, 2025):
≈ marks a conversion by molar mass, not a printed value.

Legend:
[1] = Cytotoxicity on RAW 264.7 macrophages (MTT, 48 h); assay type: cell-based; conditions: mouse, RAW 264.7 macrophages
Procedure: (§1) To evaluate the cytotoxicity and antiamastigote assay, RAW 264.7 macrophages were cultured in Dulbecco’s modified Eagle medium (HiMedia, India), 10% heat-inactivated fetal bovine serum (FBS, Biowest) and cultured at 37°C (5% CO2). The macrophage cell growth was evaluated daily, and the cells were subcultured into a new flask containing fresh cell culture medium once they reached about 80%–90% confluency.
(§2) The cytotoxicity studies were performed using an immune cell line (RAW 264.7 macrophage) and non-immune epithelial cell line (HeLa) by 3-(4,5-dimethylthiazol-2-yl)-2,5-diphenyltetrazolium bromide (MTT) assay. A total of 7,000–10,000 cells/well were supplemented with different concentrations (2–64 μg/mL) of TLR7/8 agonists and incubated for 48 hours. MTT (1 mg/mL) (Hi-Media) was added to each well and kept for 4 hours. The formazan crystals formed were dissolved in 100 µL of dimethyl ulfoxide (DMSO), and absorbance at 550 nm was recorded using a microreader. AmB, MF, and Resiquimod were used as reference drugs. The percentage of cytotoxicity was calculated as [(absorbance of treated well − absorbance of blank) / (absorbance of untreated well − absorbance of blank)] × 100. The CC50 value was calculated with SPSS software. The SI of TLR7/8 agonists was obtained by calculating the ratio of CC50 (RAW 264.7 macrophage and HeLa cells) and IC50 (antipromastigote and antiamastigotes) ([21], [23]).

[2] = system: L. donovani promastigotes; assay: In vitro antipromastigote activity (trypan blue count, 48 h); assay type: cell-based, Leishmania donovani MHOM/IN/80/DD8; conditions: Leishmania donovani, mean ± SD
Procedure: M199 was added with 0.2% sodium bicarbonate and 10% heat-inactivated fetal bovine serum (FBS; Biowest, France) + antibiotics (gentamycin and streptomycin) by serial subcultures after every 48-72 hours by transferring 0.5-1.0 mL of culture supernatant in fresh medium and kept in a biological oxygen demand (BOD) incubator ([20]). […] The percentage growth inhibition was calculated using the following formulas: Percentage viability=No. of live cells in treated well/No. of live cells in blank well×100 Percentage growth inhibition=100 - percentage viability. The IC50 values were calculated using SPSS software, version 25 ([22]).

[3] = Cytotoxicity on HeLa cells (MTT, 48 h); assay type: cell-based, human; conditions: human, HeLa cells
Procedure: HeLa cells (human cervical epithelial cell line) were grown in RPMI-1640 (HiMedia) with 10% FBS and cultured at 37°C (5% CO2). The cells were evaluated daily using an inverted microscope for any contamination and subcultured after reaching confluency ([21]).
as §2

[4] = system: intracellular L. donovani amastigotes; assay: Antiamastigote activity in infected RAW 264.7 macrophages (Giemsa count, 48 h); assay type: cell-based; conditions: Leishmania donovani, RAW264.7, intracellular amastigotes in RAW 264.7 macrophages, mean ± SD
Procedure: The macrophage cell growth was evaluated daily, and the cells were subcultured into a new flask containing fresh cell culture medium once they reached about 80%–90% confluency. […] Macrophages (2 × 10^4/mL) were plated on round coverslips placed in 24-well plates for 24 hours in a CO2 incubator (5% CO2) at 37°C. The coverslips were washed thrice with serum-free medium to remove the non-adherent cells. […] Infected macrophages were incubated with different concentrations of TLR7/8 agonists for 48 hours. After 48 hours, the coverslips were washed with phosphate-buffered saline (PBS), dried, fixed with chilled methanol, Giemsa-stained, and examined under a light microscope. A minimum of 200 macrophages were counted per coverslip to determine the number of amastigotes.

TLR8 = system: TLR8; parameters: method as in PMID 38741265, PMID 39411538; conditions: Table 1; previously reported; cited from earlier work
TLR7 = system: TLR7; parameters: method as in PMID 38741265, PMID 39411538; conditions: Table 1, previously reported, cited from earlier work; for EC50: read-out: TLL7 EC50
[5] = system: L. donovani promastigotes; assay: ROS in Leishmania promastigotes (H2DCFDA, flow cytometry); assay type: cell-based, Leishmania donovani; conditions: promastigotes incubated with the IC50 value for 48 hours; untreated 295 ± 1.52
Procedure: Induction of ROS by promastigotes after exposure to TLR7/8 agonists was done using a cell-permeable fluorescent dye H2DCFDA (Thermo Fisher). […] After this given time period, parasites were harvested and washed thrice with PBS and resuspended in 10 µM H2DCFDA for 20 minutes in the dark at 37°C. The fluorescence was measured by using FACS Calibur flow cytometry ([24]).

[6] = system: L. donovani promastigotes; assay: Cell cycle progression in promastigotes (propidium iodide, flow cytometry); assay type: cell-based, Leishmania donovani; conditions: promastigotes incubated with the IC50 for 48 hours; untreated 12.0% ± 1.05%
Procedure: For analysis of the promastigote cell cycle, 2 × 10^6 promastigotes/mL were briefly incubated with the IC50 of TLR7/8 agonists in a 24-well culture plate. After 48 hours, promastigotes were washed with PBS and fixed with 70% (vol/vol) chilled ethanol. After 1 hour of incubation, parasites were washed with PBS, and the pellet was incubated with 500 µL of DNase-free RNase (200 µg/mL) (Thermo Fisher) for 1 hour. Afterward, parasites were stained with PI dye (50 µg/mL), and the percentage of parasites in the sub-G0/G1 phase was analyzed using FACS Calibur flow cytometry ([20]).

RAW 264.7 macrophages [7] = assay: NO production in RAW 264.7 macrophages (Griess reagent); assay type: cell-based
Procedure: After 24 hours, non-adherent cells were removed, and adherent cells were incubated with TLR7/8 agonist for 48 hours in the presence or absence of LPS (1 µg/mL) (Biosciences) to evaluate both unstimulated and LPS-stimulated macrophage responses. After 48 hours, the culture supernatant (100 µL) was collected and mixed with an equal volume of Griess reagent (1% sulfanilamide and 0.1% naphthlethylenediamine dihydrochloride in 2.5% phosphoric acid) (Sigma), and absorbance was measured in a microreader at 540 nm. Nitrite concentration was evaluated from a standard curve generated with sodium nitrite ([25]).

RAW 264.7 macrophages [8] = assay: Cytotoxicity on RAW 264.7 macrophages (MTT, 48 h); assay type: cell-based; conditions: MTT, 48 hours, mean ± SD
Procedure: as §1, §2

Leishmania major = system: Leishmania major; parameters: method as in PMID 33531168; conditions: 80 µM concentration; cited from earlier work
Leishmania infantum = conditions: read-out: IC50 against Leishmania infantum; cited from earlier work
[9] = system: Leishmania in peritoneal macrophages; parameters: method as in PMID 30991111; conditions: cited from earlier work
L. infantum = system: L. infantum; parameters: method as in PMID 33851916; conditions: read-out: IC50 (antiamastigote) against L. infantum; cited from earlier work
[10] = MTT, 48 hours, mean ± SD, read-out: RAW macrophage CC50
[11] = MTT, 48 hours, mean ± SD, read-out: HeLa cell CC50
[12] = Fig 4 heat map, mean CC50, unit inferred, read-out: CC50, heat map, Hela Cells

SMILES	CC50 at 48 h [1, 10] [mg/L]	IC50 [2] [mg/L]	CC50 at 48 h [3, 11] [mg/L]	IC50 [4] [mg/L]	CC50 at 48 h [3, 12] [mg/L]	EC50 (TLR8) [µM]	EC50 (TLR7) [µM]	other results
CCCCc1nc2c(N)nc3ccccc3c2n1Cc1ccc(CNC(=O)OC(C)(C)C)cc1 [compound 7]	6.28 ± 0.2 (≈ 13.7 µM)	3.82 ± 0.39 (≈ 8.31 µM)	4.28 ± 0.2 (≈ 9.31 µM)	5.16 ± 0.79 (≈ 11.2 µM)	–	–	–	TLR8 EC50 (TLR8): Active; TLL7 EC50 (TLR7): Active
CCCCc1nc2c(N)nc3ccccc3c2n1Cc1cccc(CNC(=O)OC(C)(C)C)c1 [compound 8]	9.5 ± 1 (≈ 20.7 µM)	2.21 ± 0.6 (≈ 4.81 µM)	8.86 ± 0.5 (≈ 19.3 µM)	3.1 ± 0.9 (≈ 6.75 µM)	8.8 (≈ 19.1 µM)	–	–	TLR8 EC50 (TLR8): Active; TLL7 EC50 (TLR7): Active
CCCCc1nc2c(N)nc3ccccc3c2n1Cc1cccc(CN)c1 [compound 9]	6.67 ± 0.3 (≈ 18.6 µM)	4.53 ± 0.58 (≈ 12.6 µM)	4.67 ± 0.3 (≈ 13 µM)	6.46 ± 0.47 (≈ 18 µM)	–	[…]	[…]	–
CCCCc1nc2c(N)nc3ccccc3c2n1Cc1ccc(CN)cc1 [compound 10]	30.4 ± 1.6 (≈ 84.5 µM)	2.33 ± 0.4 (≈ 6.48 µM)	29.4 ± 1.6 (≈ 81.7 µM)	3 ± 0.36 (≈ 8.35 µM)	21.4 (≈ 59.4 µM)	[…]	[…]	CC50 at 48 h ([1]; Fig 4 heat map, mean CC50, unit inferred, read-out: CC50, heat map, Raw Macrophages): 25.4 mg/L (≈ 70.6 µM); ROS, mean fluorescence intensity (MFI) [5]: 935 ± 1; percentage of parasites in sub-G0/G1 phase [6]: 75.7% ± 1.25%; NO production (RAW 264.7 macrophages [7]; RAW 264.7 macrophages, 48 hour treatment at the IC50 value, nitrite by Griess): 42 ± 1 µM; NO production in unstimulated macrophages (RAW 264.7 macrophages [7]; RAW macrophages without LPS stimulation, in words): moderate NO production
CCCCn1cc2c(n1)c(N)nc1ccccc12 [compound 11]	6.69 ± 0.22 (≈ 27.8 µM)	4.63 ± 0.45 (≈ 19.3 µM)	4.67 ± 0.2 (≈ 19.4 µM)	6.6 ± 0.4 (≈ 27.5 µM)	4.88 (≈ 20.3 µM)	0.056	0.19	RAW macrophage CC50 (RAW 264.7 macrophages [8]): 6.67 ± 0.2 mg/L
COc1cc(/C=C/C(=O)CC(=O)/C=C/c2ccc(O)c(OC)c2)ccc1O [curcumin]	–	–	–	–	–	–	–	cell death (Leishmania major): 82.5%
CC(C)Cn1cnc2c(N)nc3ccccc3c21 [imiquimod]	–	–	–	–	–	–	–	IC50 (Leishmania infantum): 0.235 ± 0.01 µM
Oc1ccc(/C=C/c2cc(O)cc(O)c2)cc1 [resveratrol]	–	–	–	–	–	–	–	IC50 against Leishmania in peritoneal macrophages [9]: 0.09 mg/L (≈ 0.394 µM)
CC(=O)OC1C(O)CC(OC2C(O)CC(OC3C(O)CC(OC4CCC5(C)C(CCC6C5CCC5(C)C(C7=CC(=O)OC7)CCC65O)C4)OC3C)OC2C)OC1C (stereo not drawn) [β-acetyl-digitoxin]	–	–	–	–	–	–	–	IC50 (L. infantum): 20.9 ± 2.6 µM
